Tested on: Escherichia coli ATCC 25922
Experiment: Etest strip MIC, sample deposited by smearing with a filtration sampling tool along two axes
Assay type: cell-based
Conditions: smear deposition, incubated at 35° C., shadowgraphy images from 3 h 30; visual examination at 6 h 30 confirms
Source text: A third method of implementation of the invention is illustrated by FIGS. 11a, 11b and 12. In this method, the sample is deposited by smearing on the surface of the culture medium (e.g. agar in a Petri dish with a diameter greater than or equal to 9 cm) by means of a sampling tool such as described in the international application published under the number WO2012/083150. Such an integrated device makes it possible to carry out one or more filtration steps and also to transfer a liquid sample. Said device comprises a tubular portion, one of the ends of which is covered with a filtration material such as a membrane, said filtration material being arranged outside this end and covering it totally. The other end of the tubular portion is able to be connected to a suction or dispensing means such as a vacuum pump. The benefit of using such a tool especially being able to estimate the MIC of a sample originating from a positive blood culture bottle, that is to say one which has a result confirming the presence of microorganisms after a given incubation time. For this purpose, the sample may especially be prepared by taking off a volume of the positive blood culture, carrying out a step of lysis, for example chemical lysis, of the blood cells of the volume taken off, then by carrying out filtration of the lysed volume by suction at the surface of a membrane. […]

Work on gentamicin yielded a minimum inhibitory concentration of 1.5 mg/L.
